Source: ChEMBL document CHEMBL5584203, “Discovery of sinomenine/8-Bis(benzylthio)octanoic acid hybrids as potential anti-leukemia drug candidate via mitochondrial pathway” (Bioorg Med Chem Lett, 2024)

What was measured:
K562 [1] = test: Antiproliferative activity against human K562 cells by CCK8 assay; assay type: functional, cell-based
[2] = Cytotoxicity against human PBMCs by CCK8 assay; assay type: toxicity, cell-based, PBMC
MCF7 = test: Antiproliferative activity against human MCF7 cells by CCK8 assay; assay type: functional, cell-based
HepG2 = test: Antiproliferative activity against human HepG2 cells by CCK8 assay; assay type: functional, cell-based
PANC-1 = test: Antiproliferative activity against human PANC-1 cells by CCK8 assay; assay type: functional, cell-based
MDA-MB-231 = test: Antiproliferative activity against human MDA-MB-231 cells by CCK8 assay; assay type: functional, cell-based
A549 = test: Antiproliferative activity against human A549 cells by CCK8 assay; assay type: functional, cell-based
Cell membrane [3] = test: Induction of mitochondrial membrane potential loss in human K562 cells assessed as increase in apoptotic cells at 4.90 uM by JC-1 staining based flow cytometry analysis (reference value: 5.70); assay type: cell membranes; conditions: dose 4.9 µM
K562 [4] = test: Induction of apoptosis in human K562 cells assessed as late apoptotic cells at 1.23 uM by Annexin V-FITC and PI staining based flow cytometry analysis (reference value: 3.04%); assay type: functional
K562 [5] = test: Induction of cell cycle arrest in human K562 cells assessed as G2 phase cells at 4.90 uM by propidium iodide staining based flow cytometry analysis (reference value: 12.80%); assay type: functional; conditions: dose 4.9 µM
K562 [6] = test: Induction of apoptosis in human K562 cells assessed as late apoptotic cells at 2.45 uM by Annexin V-FITC and PI staining based flow cytometry analysis (reference value: 3.04%); assay type: functional
K562 [7] = test: Induction of cell cycle arrest in human K562 cells assessed as G2 phase cells at 2.45 uM by propidium iodide staining based flow cytometry analysis (reference value: 12.80%); assay type: functional
K562 [8] = test: Induction of apoptosis in human K562 cells assessed as cell membrane rupture incubated for 48 hrs by Hoechst 33,258 staining based fluorescence microscopy analysis; assay type: functional; conditions: dose 1.23-4.9 µM
K562 [9] = test: Induction of apoptosis in human K562 cells assessed as early apoptotic cells at 2.45 uM by Annexin V-FITC and PI staining based flow cytometry analysis (reference value: 3.31%); assay type: functional
K562 [10] = test: Induction of apoptosis in human K562 cells assessed as chromatin condensation incubated for 48 hrs by Hoechst 33,258 staining based fluorescence microscopy analysis; assay type: functional, cell-based; conditions: dose 1.23-4.9 µM
Cell membrane [11] = test: Induction of mitochondrial membrane potential loss in human K562 cells assessed as increase in apoptotic cells at 1.23 uM by JC-1 staining based flow cytometry analysis (reference value: 5.70); assay type: cell membranes
K562 [12] = test: Induction of cell cycle arrest in human K562 cells assessed as S phase cells at 1.23 uM by propidium iodide staining based flow cytometry analysis (reference value: 44.03%); assay type: functional
K562 [13] = test: Induction of apoptosis in human K562 cells assessed as late apoptotic cells at 4.90 uM by Annexin V-FITC and PI staining based flow cytometry analysis (reference value: 3.04%); assay type: functional; conditions: dose 4.9 µM
K562 [14] = test: Induction of cell cycle arrest in human K562 cells assessed as G1 phase cells at 4.90 uM by propidium iodide staining based flow cytometry analysis (reference value: 43.16%); assay type: functional; conditions: dose 4.9 µM
K562 [15] = test: Induction of cell cycle arrest in human K562 cells assessed as G1 phase cells at 2.45 uM by propidium iodide staining based flow cytometry analysis (reference value: 43.16%); assay type: functional
K562 [16] = test: Induction of apoptosis in human K562 cells assessed as early apoptotic cells at 1.23 uM by Annexin V-FITC and PI staining based flow cytometry analysis (reference value: 3.31%); assay type: functional
K562 [17] = test: Induction of cell cycle arrest in human K562 cells assessed as G1 phase cells at 1.23 uM by propidium iodide staining based flow cytometry analysis (reference value: 43.16%); assay type: functional
K562 [18] = test: Induction of cell cycle arrest in human K562 cells assessed as S phase cells at 2.45 uM by propidium iodide staining based flow cytometry analysis (reference value: 44.03%); assay type: functional
K562 [19] = test: Induction of apoptosis in human K562 cells assessed as early apoptotic cells at 4.90 uM by Annexin V-FITC and PI staining based flow cytometry analysis (reference value: 3.31%); assay type: functional; conditions: dose 4.9 µM
K562 [20] = test: Induction of cell cycle arrest in human K562 cells assessed as G2 phase cells at 1.23 uM by propidium iodide staining based flow cytometry analysis (reference value: 12.80%); assay type: functional
K562 [21] = test: Induction of cell cycle arrest in human K562 cells assessed as S phase cells at 4.90 uM by propidium iodide staining based flow cytometry analysis (reference value: 44.03%); assay type: functional; conditions: dose 4.9 µM
Cell membrane [22] = test: Induction of mitochondrial membrane potential loss in human K562 cells assessed as increase in apoptotic cells at 2.45 uM by JC-1 staining based flow cytometry analysis (reference value: 5.70); assay type: cell membranes

Structure (SMILES)	IC50 (K562 [1])	IC50 [2]	IC50 (MCF7)	IC50 (HepG2)	IC50 (PANC-1)	IC50 (MDA-MB-231)	IC50 (A549)	also measured
COC1=CC2[C@@H]3Cc4c(Br)cc(OC)c(OCCOC(=O)CCCCC(CCSCc5ccccc5)SCc5ccccc5)c4[C@]2(CCN3C)CC1=O (stereo not given in full)	18.9 µM	> 50 µM	> 50 µM	> 50 µM	> 50 µM	> 50 µM	> 50 µM	
COC1=CC2[C@@H]3Cc4c(Cl)cc(OC)c(OCCOC(=O)CCCCC(CCSCc5ccccc5)SCc5ccccc5)c4[C@]2(CCN3C)CC1=O (stereo not given in full)	16.8 µM	> 50 µM	> 50 µM	> 50 µM	> 50 µM	> 50 µM	> 50 µM	
COC1=CC2[C@@H]3Cc4c(Br)cc(OC)c(OCCCCOC(=O)CCCCC(CCSCc5ccccc5)SCc5ccccc5)c4[C@]2(CCN3C)CC1=O (stereo not given in full)	25.1 µM	> 50 µM	> 50 µM	> 50 µM	> 50 µM	> 50 µM	> 50 µM	
COC1=C[C@@H]2[C@@H]3Cc4ccc(OC)c(O)c4[C@]2(CCN3C)CC1=O [SINOMENINE]	37.2 µM		> 50 µM	> 50 µM	> 50 µM	> 50 µM	> 50 µM	
COC1=CC2[C@@H]3Cc4ccc(OC)c(OCCCCCCOC(=O)CCCCC(CCSCc5ccccc5)SCc5ccccc5)c4[C@]2(CCN3C)CC1=O (stereo not given in full)	3.02 µM	> 50 µM	> 50 µM	28.2 µM	> 50 µM	> 50 µM	16.2 µM	
COC1=CC2[C@@H]3Cc4c(Cl)cc(OC)c(O)c4[C@]2(CCN3C)CC1=O (stereo not given in full)	39.3 µM		> 50 µM	> 50 µM	> 50 µM	> 50 µM	> 50 µM	
COC1=CC2[C@@H]3Cc4c(Br)cc(OC)c(OCCCOC(=O)CCCCC(CCSCc5ccccc5)SCc5ccccc5)c4[C@]2(CCN3C)CC1=O (stereo not given in full)	24.3 µM	> 50 µM	> 50 µM	> 50 µM	> 50 µM	> 50 µM	> 50 µM	
COC1=CC2[C@@H]3Cc4c(Cl)cc(OC)c(OCCCCOC(=O)CCCCC(CCSCc5ccccc5)SCc5ccccc5)c4[C@]2(CCN3C)CC1=O (stereo not given in full)	17.8 µM	> 50 µM	> 50 µM	> 50 µM	> 50 µM	> 50 µM	> 50 µM	
COC1=CC2[C@@H]3Cc4ccc(OC)c(OCCCCOC(=O)CCCCC(CCSCc5ccccc5)SCc5ccccc5)c4[C@]2(CCN3C)CC1=O (stereo not given in full)	5.32 µM	> 50 µM	46.9 µM	36.6 µM	> 50 µM	> 50 µM	28.6 µM	
COC1=CC2[C@@H]3Cc4c(Br)cc(OC)c(O)c4[C@]2(CCN3C)CC1=O (stereo not given in full)	33 µM		> 50 µM	> 50 µM	> 50 µM	> 50 µM	> 50 µM	
COC1=CC2[C@@H]3Cc4c(Cl)cc(OC)c(OCCCCCCOC(=O)CCCCC(CCSCc5ccccc5)SCc5ccccc5)c4[C@]2(CCN3C)CC1=O (stereo not given in full)	21.5 µM	> 50 µM	> 50 µM	> 50 µM	> 50 µM	> 50 µM	> 50 µM	
COC1=CC2[C@@H]3Cc4c(Br)cc(OC)c(OC(=O)CCCCC(CCSCc5ccccc5)SCc5ccccc5)c4[C@]2(CCN3C)CC1=O (stereo not given in full)	17.4 µM	> 50 µM	> 50 µM	> 50 µM	> 50 µM	> 50 µM	> 50 µM	
COC1=CC2[C@@H]3Cc4c(Cl)cc(OC)c(OCCCCCOC(=O)CCCCC(CCSCc5ccccc5)SCc5ccccc5)c4[C@]2(CCN3C)CC1=O (stereo not given in full)	19.5 µM	> 50 µM	> 50 µM	> 50 µM	> 50 µM	> 50 µM	> 50 µM	
COC1=CC2[C@@H]3Cc4ccc(OC)c(OCCCOC(=O)CCCCC(CCSCc5ccccc5)SCc5ccccc5)c4[C@]2(CCN3C)CC1=O (stereo not given in full)	4.16 µM	> 50 µM	48.4 µM	37 µM	> 50 µM	> 50 µM	17.7 µM	
COC1=CC2[C@@H]3Cc4c(Br)cc(OC)c(OCCCCCOC(=O)CCCCC(CCSCc5ccccc5)SCc5ccccc5)c4[C@]2(CCN3C)CC1=O (stereo not given in full)	22.5 µM	> 50 µM	> 50 µM	> 50 µM	> 50 µM	> 50 µM	> 50 µM	
O=C(O)CCCCC(CCSCc1ccccc1)SCc1ccccc1 (stereo not given) [CPI 613]	> 50 µM		> 50 µM	> 50 µM	> 50 µM	> 50 µM	> 50 µM	
COC1=CC2[C@@H]3Cc4c(Br)cc(OC)c(OCCCCCCOC(=O)CCCCC(CCSCc5ccccc5)SCc5ccccc5)c4[C@]2(CCN3C)CC1=O (stereo not given in full)	> 50 µM	> 50 µM	> 50 µM	> 50 µM	> 50 µM	> 50 µM	> 50 µM	
COC1=CC2[C@@H]3Cc4c(Cl)cc(OC)c(OCCCOC(=O)CCCCC(CCSCc5ccccc5)SCc5ccccc5)c4[C@]2(CCN3C)CC1=O (stereo not given in full)	27.4 µM	> 50 µM	> 50 µM	> 50 µM	> 50 µM	> 50 µM	> 50 µM	
COC1=CC2[C@@H]3Cc4ccc(OC)c(OC(=O)CCCCC(CCSCc5ccccc5)SCc5ccccc5)c4[C@]2(CCN3C)CC1=O (stereo not given in full)	23.4 µM	> 50 µM	> 50 µM	> 50 µM	> 50 µM	> 50 µM	> 50 µM	
COC1=CC2[C@@H]3Cc4c(Cl)cc(OC)c(OC(=O)CCCCC(CCSCc5ccccc5)SCc5ccccc5)c4[C@]2(CCN3C)CC1=O (stereo not given in full)	26 µM	> 50 µM	> 50 µM	> 50 µM	> 50 µM	> 50 µM	> 50 µM	
COC1=CC2[C@@H]3Cc4ccc(OC)c(OCCCCCOC(=O)CCCCC(CCSCc5ccccc5)SCc5ccccc5)c4[C@]2(CCN3C)CC1=O (stereo not given in full)	2.45 µM	> 50 µM	45.4 µM	15.6 µM	> 50 µM	> 50 µM	23.9 µM	Activity (Cell membrane [3]): 59.1%; Activity (K562 [4]): 3.53%; Activity (K562 [5]): 6.48%; Activity (K562 [6]): 13.66%; Activity (K562 [7]): 3.47%; Activity (K562 [8]): Dose-Dependent Effect; Activity (K562 [9]): 24.33%; Activity (K562 [10]): Dose-Dependent Effect; Activity (Cell membrane [11]): 26.4%; Activity (K562 [12]): 41.92%; Activity (K562 [13]): 39.9%; Activity (K562 [14]): 60.57%; Activity (K562 [15]): 54.84%; Activity (K562 [16]): 9.83%; Activity (K562 [17]): 47.39%; Activity (K562 [18]): 38.69%; Activity (K562 [19]): 25.04%; Activity (K562 [20]): 10.69%; Activity (K562 [21]): 32.95%; Activity (Cell membrane [22]): 41.1%
O=c1[nH]cc(F)c(=O)[nH]1 [FLUOROURACIL]	5.18 µM		> 50 µM		48.2 µM	> 50 µM	34.9 µM	
COC1=CC2[C@@H]3Cc4ccc(OC)c(OCCOC(=O)CCCCC(CCSCc5ccccc5)SCc5ccccc5)c4[C@]2(CCN3C)CC1=O (stereo not given in full)	158 µM	> 50 µM	> 50 µM	47.5 µM	> 50 µM	> 50 µM	11.6 µM	
